The values that follow come from ChEMBL document CHEMBL1201862, “PubChem BioAssay data set” (2004).

Calls of active or inactive are those of the source.

Experiment [1] concerns the target T1, Tyrosine-protein phosphatase non-receptor type 22 (Homo sapiens, UniProt Q9Y2R2).
T1 sequence (Q9Y2R2 whole entry): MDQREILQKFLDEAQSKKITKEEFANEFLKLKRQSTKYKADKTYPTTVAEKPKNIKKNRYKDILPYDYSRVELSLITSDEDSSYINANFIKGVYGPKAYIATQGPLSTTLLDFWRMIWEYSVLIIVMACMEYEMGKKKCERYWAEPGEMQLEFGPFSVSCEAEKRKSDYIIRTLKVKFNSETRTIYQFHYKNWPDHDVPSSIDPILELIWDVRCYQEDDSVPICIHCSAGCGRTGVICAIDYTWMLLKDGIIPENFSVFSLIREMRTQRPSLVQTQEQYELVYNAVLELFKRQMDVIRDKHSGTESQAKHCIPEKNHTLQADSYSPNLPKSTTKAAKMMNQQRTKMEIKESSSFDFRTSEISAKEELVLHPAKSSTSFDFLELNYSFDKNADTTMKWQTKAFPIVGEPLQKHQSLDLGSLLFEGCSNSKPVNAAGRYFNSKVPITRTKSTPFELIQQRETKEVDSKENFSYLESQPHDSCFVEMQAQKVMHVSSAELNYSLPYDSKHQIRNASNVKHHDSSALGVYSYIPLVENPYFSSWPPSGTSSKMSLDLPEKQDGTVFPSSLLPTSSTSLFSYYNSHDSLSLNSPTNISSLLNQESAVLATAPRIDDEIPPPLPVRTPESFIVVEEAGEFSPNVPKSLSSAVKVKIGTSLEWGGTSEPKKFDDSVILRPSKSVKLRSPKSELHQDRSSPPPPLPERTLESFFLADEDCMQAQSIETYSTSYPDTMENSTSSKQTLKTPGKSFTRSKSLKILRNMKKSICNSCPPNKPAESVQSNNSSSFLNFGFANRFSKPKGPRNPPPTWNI
Kind of experiment: PTPN22 phosphatase inhibition, dose response, selectivity assay for STEP inhibitor project, biochemical (AID 624241). It counts as functional.

Experiment [2] has as its target T2, Tyrosine-protein phosphatase non-receptor type 11 (Homo sapiens, UniProt Q06124).
T2 sequence (Q06124 whole entry): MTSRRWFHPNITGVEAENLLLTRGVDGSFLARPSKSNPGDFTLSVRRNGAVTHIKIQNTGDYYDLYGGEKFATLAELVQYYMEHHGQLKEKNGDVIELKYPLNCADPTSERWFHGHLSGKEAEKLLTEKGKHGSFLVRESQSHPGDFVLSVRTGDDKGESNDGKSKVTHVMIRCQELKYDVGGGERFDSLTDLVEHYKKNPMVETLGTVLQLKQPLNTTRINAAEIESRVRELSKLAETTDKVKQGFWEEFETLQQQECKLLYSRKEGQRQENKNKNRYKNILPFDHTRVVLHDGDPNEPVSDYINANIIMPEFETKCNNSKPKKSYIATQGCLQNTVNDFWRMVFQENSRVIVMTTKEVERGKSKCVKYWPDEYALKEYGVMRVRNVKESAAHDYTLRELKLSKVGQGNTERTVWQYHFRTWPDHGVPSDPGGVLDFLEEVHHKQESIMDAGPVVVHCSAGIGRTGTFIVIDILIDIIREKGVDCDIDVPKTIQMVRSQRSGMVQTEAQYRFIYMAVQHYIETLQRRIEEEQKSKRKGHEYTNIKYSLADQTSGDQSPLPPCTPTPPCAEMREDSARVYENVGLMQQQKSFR
The experiment in a line: SHP2 phosphatase inhibition, dose response, selectivity assay for STEP inhibitor project, biochemical (AID 602367). It counts as functional. Conditions: read-out: IC50_Mean.

For experiment [3], the target named is T3, Tyrosine-protein phosphatase non-receptor type 5 (Homo sapiens, UniProt P54829).
T3 sequence (P54829 whole entry): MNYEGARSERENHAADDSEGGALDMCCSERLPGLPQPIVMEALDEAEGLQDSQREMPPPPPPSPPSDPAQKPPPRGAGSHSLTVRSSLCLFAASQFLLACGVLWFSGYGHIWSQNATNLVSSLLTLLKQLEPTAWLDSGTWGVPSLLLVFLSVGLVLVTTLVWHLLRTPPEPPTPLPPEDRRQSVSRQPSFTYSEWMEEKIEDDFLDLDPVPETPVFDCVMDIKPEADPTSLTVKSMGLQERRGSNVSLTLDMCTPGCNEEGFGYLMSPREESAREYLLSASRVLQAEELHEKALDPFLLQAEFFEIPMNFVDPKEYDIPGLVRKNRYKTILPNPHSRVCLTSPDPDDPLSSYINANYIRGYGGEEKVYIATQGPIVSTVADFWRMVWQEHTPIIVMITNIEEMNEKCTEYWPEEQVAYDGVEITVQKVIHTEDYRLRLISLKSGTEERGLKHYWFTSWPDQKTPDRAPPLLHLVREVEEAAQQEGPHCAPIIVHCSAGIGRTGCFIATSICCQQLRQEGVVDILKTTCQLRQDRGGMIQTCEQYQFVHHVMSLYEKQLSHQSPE
Kind of experiment: STEP phosphatase inhibitors, confirmation, biochemical, fluorescence intensity, uHTS hits (AID 602372). It counts as functional. Conditions: read-out: IC50_Mean.

Experiment [4] addresses Dual specificity protein phosphatase 3 (Homo sapiens, UniProt P51452). The experiment in a line: VHR phosphatase inhibition, dose response, selectivity assay for STEP inhibitor project, biochemical (AID 602374). It counts as functional. Particulars: read-out: IC50_Mean.
The target in experiment [5] is Long-chain-fatty-acid--AMP ligase FadD28 (Mycobacterium tuberculosis, UniProt P9WQ59). The experiment in a line: Fluorescence polarization aasay to screen for inhibitors that compete for the binding of FadD28 to a bisubstrate Measured in Biochemical System Using Plate Reader - 2147-01_Inhibitor_Dose_CherryPick_Activity. Format: functional, Mycobacterium tuberculosis H37Rv. On the technique in general: In fluorescence polarisation assays a small probe gives low polarisation when free and higher when bound to something large.

Experiment [6] in a line: cells. It counts as functional, cell-based. Conditions: HEK-CNG.
The next experiment concerns the target Galanin receptor type 3 (Homo sapiens, UniProt O60755). Kind of experiment: Fluorescence-based cell-based primary high throughput dose response assay to identify antagonists of the Galanin Receptor 3 (GalR3). It counts as functional.
Another experiment concerns H9c2. Kind of experiment: cells. It counts as functional, cell-based. Conditions: Rattus norvegicus, H9c2, Myocardium.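 Further: confirmatory concentration-response retest of ultra-high-throughput screening hits for modulation of myocardial damage; cell death induced by hydrogen peroxide oxidative stress; compound pretreatment for 60 min then peroxide exposure for 2 h; potency is for protecting the cells against peroxide damage rather than for killing them.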
In experiment [7] the target is T4, Sentrin-specific protease 1 (Homo sapiens, UniProt Q9P0U3).
T4 sequence (Q9P0U3 whole entry): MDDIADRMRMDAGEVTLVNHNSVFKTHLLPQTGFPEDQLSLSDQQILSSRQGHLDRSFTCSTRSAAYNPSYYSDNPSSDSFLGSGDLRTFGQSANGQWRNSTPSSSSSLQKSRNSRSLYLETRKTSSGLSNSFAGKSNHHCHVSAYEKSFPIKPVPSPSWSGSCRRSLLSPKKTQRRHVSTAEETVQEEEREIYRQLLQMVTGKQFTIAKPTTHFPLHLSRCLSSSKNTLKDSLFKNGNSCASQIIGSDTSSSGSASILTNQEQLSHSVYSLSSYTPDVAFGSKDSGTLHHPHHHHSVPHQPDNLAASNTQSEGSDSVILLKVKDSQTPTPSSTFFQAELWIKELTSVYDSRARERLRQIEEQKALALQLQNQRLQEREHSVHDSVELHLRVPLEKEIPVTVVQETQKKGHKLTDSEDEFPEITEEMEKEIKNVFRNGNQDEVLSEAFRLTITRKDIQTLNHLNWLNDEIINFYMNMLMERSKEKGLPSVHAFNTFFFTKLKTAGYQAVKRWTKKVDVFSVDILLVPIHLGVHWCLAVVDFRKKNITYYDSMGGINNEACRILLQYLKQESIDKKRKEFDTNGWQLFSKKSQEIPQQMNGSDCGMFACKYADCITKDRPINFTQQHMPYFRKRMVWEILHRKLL
The experiment in a line: Dose response confirmation of small molecule inhibitors of the catalytic domain of the SUMO protease, SENP1 in a FRET assay. It counts as functional. Conditions: read-out: IC50_Mean.

The target in experiment [8] is T4, Sentrin-specific protease 1. The experiment in a line: potency of human SENP1 inhibitors, dose response, biochemical, kinetic FRET (AID 651697). It counts as functional. Conditions: read-out: IC50_Mean.
A short description of experiment [9]: cells.
Experiment [10] addresses Beta-lactamase (Salmonella choleraesuis (strain SC-B67), UniProt Q5J463). Kind of experiment: Epi-absorbance-based counterscreen for selective VIM-2 inhibitors: dose response biochemical high throughput screening assay to identify inhibitors of TEM-1 serine-beta-lactamase. For orientation: Counterscreens check selectivity or assay interference.
A further experiment addresses Major prion protein (Homo sapiens, UniProt P04156). It counts as functional, cell-based.
Experiment [11] has as its target T5, Beta-lactamase (Pseudomonas aeruginosa, UniProt Q79MP6). Kind of experiment: […] counterscreen for selective VIM-2 inhibitors: dose response biochemical high throughput screening assay to identify inhibitors of IMP-1 metallo-beta-lactamase.
The target of experiment [12] is T5, Beta-lactamase. Kind of experiment: IMP-1 metallo-beta-lactamase inhibitors, dose response, selectivity assay for VIM-2 inhibitor project, biochemical, epi-absorbance (AID 1920).
Experiment [13] in a line: Counterscreen for inhibitors of Trypanosoma brucei methionyl tRNA synthetase (MetRS): Luminescence-based cell-based high throughput dose response assay to identify compounds that are cytotoxic to Jurkat human T lymphocyte cells. Format: functional.
The target of experiment [14] is T6, Methionyl-tRNA synthetase, putative (Trypanosoma brucei brucei, UniProt Q38C91).
T6 sequence (Q38C91 whole entry): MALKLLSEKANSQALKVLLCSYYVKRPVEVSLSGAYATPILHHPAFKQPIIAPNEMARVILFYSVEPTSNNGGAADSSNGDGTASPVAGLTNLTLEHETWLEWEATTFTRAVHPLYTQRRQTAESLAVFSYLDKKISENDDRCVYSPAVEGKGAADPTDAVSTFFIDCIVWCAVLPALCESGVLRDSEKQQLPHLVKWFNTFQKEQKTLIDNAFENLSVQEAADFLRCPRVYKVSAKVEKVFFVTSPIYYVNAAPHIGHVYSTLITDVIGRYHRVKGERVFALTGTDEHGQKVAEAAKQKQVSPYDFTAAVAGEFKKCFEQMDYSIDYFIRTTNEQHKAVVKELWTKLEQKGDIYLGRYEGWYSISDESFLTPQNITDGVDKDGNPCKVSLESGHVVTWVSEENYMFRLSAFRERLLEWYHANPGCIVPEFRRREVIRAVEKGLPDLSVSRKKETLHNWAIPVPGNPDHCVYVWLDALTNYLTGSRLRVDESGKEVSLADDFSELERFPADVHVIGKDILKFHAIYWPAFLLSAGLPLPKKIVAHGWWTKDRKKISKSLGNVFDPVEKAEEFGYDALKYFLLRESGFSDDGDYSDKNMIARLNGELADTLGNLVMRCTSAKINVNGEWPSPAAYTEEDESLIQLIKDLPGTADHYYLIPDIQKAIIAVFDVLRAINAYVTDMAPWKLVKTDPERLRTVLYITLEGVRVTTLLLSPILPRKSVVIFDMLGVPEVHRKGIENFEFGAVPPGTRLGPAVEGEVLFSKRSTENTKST
It counts as functional, Trypanosoma brucei brucei strain 927/4 GUTat10.1.

For experiment [15], the target named is T6, Methionyl-tRNA synthetase, putative. Format: functional, Trypanosoma brucei brucei strain 927/4 GUTat10.1. This is another data set of the same source.
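Wherever EC50 is given: target is galanin receptor GalR3 read with a cAMP biosensor in HEK293 cells.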

In the case of `COc1ccc(NC(S)=NCCN2CCC(C)CC2)cc1Cl`, the IC50 in [1] was 43.9 µM (inactive); in [2] it was 0.999 µM (active); in experiment [3], 11.2 µM (active); in [4] it was 0.72 µM (active).
Usually AC50 stands for the midpoint of the concentration-response curve, whichever way the signal moves. `Cc1noc(NS(=O)(=O)c2ccc(NC(=O)/C=C/c3ccc(C(C)C)cc3)cc2)c1C`: the AC50 in experiment [5] is 30.2 µM (active).
The term EC50 denotes the concentration at which the effect is half-maximal. Regarding `Oc1nc2cccnc2c2ccsc12`, the EC50 in the experiment “cells [6]” is > 29.9 µM (inactive). Moreover, the IC50 is > 29.9 µM (inactive) on Galanin receptor type 3 and > 79 µM (inactive) with H9c2.
For the compound `O=[N+]([O-])C(=C1SCCS1)C(=C(Cl)Cl)N1CCCCC1`, the AC50 in experiment [5] is > 100 µM (inactive).
Turning to `NC(=S)c1cc2cc(Br)ccc2oc1=O`, the IC50 is 3.31 µM (active) in [7] and 5.2 µM (active) in [8].
As for `O=C(O)c1ccccc1Sc1ncnc2sc3c(c12)CCC3`, the IC50 is > 138 µM (inactive) in “cells [9]”; > 59.6 µM (inactive) on Beta-lactamase [10]; 7.05 µM (active) on Major prion protein; > 59.6 µM (inactive) at Beta-lactamase [11]; > 59.6 µM (inactive) at Beta-lactamase [12].
As for `COc1ccc(/C=C2\SC(=O)N=C2N)cc1`, the IC50 in experiment [13] was 83.4 µM (inactive); in experiment [14] it was 7.57 µM (active); in experiment [15], 119 µM (inactive).
`OC(c1ccc(Cl)c(Cl)c1)c1nc(-c2ccc(Cl)cc2)c[nH]1` (centres undefined): the IC50 in experiment [13] is 51.5 µM (inactive); in experiment [14] it was 4.26 µM (active); in experiment [15], 7.79 µM (active).
With `COC(=O)[C@]12CCCCC=C1N(Cc1cccc3ccccc13)C(=O)[C@H](CC(=O)NCc1ccc(OC)c(OC)c1)C2`, the EC50 in the experiment “cells [6]” is > 29.9 µM (inactive). Moreover, the IC50 on Galanin receptor type 3 is > 29.9 µM (inactive).
